Data from patent US7056536B2, “Non-corrosive sterilant composition” (Ecolab Inc., priority 1998, dated 2006).

Test system: Bacillus cereus spores
Assay: Rate of Kill Antimicrobial Efficacy (SOP CB021-04), Formulas 1-8 with octanoic/peroctanoic acid, 40° C.
Assay type: cell-based
Conditions: on a weight basis
Protocol: Ecolab Microbiological Services SOP CB021-04; Rate of Kill Antimicrobial Efficacy. Following exposure to the formula and subsequent neutralization, spores were heat shocked for 13 minutes at 80° C. before plating. [table]

In the case of CCCCCCCC(=O)OO [peroctanoic acid, peroxyoctanoic acid], the “effect on the sporicidal efficacy of 150 ppm POAA against B. cereus, compared with octanoic acid” value was “greater effect”.
